From ChEMBL document CHEMBL4507319 (2021)
Activity calls are given as the source filed them. The calls are words filed in the database; no cut-off is given here.

Key:
[1] = biological target: Tyrosine-protein kinase Lyn (Homo sapiens) (UniProt P07948); conditions: Compound concentration 1000.0 nM
[2] = tested on: Epidermal growth factor receptor (Homo sapiens), P00533 [L858R]; conditions: Compound concentration 1000.0 nM
[3] = biological target: 5'-AMP-activated protein kinase catalytic subunit alpha-1 (Homo sapiens, UniProt Q13131); assay: Biochemical PRKAA1 assay with 10 µM ATP (Bayer in house)
[4] = biological target: T1, Serine/threonine-protein kinase TAO2 (Homo sapiens) (UniProt Q9UL54); conditions: Compound concentration 1000.0 nM
T1 sequence (whole entry): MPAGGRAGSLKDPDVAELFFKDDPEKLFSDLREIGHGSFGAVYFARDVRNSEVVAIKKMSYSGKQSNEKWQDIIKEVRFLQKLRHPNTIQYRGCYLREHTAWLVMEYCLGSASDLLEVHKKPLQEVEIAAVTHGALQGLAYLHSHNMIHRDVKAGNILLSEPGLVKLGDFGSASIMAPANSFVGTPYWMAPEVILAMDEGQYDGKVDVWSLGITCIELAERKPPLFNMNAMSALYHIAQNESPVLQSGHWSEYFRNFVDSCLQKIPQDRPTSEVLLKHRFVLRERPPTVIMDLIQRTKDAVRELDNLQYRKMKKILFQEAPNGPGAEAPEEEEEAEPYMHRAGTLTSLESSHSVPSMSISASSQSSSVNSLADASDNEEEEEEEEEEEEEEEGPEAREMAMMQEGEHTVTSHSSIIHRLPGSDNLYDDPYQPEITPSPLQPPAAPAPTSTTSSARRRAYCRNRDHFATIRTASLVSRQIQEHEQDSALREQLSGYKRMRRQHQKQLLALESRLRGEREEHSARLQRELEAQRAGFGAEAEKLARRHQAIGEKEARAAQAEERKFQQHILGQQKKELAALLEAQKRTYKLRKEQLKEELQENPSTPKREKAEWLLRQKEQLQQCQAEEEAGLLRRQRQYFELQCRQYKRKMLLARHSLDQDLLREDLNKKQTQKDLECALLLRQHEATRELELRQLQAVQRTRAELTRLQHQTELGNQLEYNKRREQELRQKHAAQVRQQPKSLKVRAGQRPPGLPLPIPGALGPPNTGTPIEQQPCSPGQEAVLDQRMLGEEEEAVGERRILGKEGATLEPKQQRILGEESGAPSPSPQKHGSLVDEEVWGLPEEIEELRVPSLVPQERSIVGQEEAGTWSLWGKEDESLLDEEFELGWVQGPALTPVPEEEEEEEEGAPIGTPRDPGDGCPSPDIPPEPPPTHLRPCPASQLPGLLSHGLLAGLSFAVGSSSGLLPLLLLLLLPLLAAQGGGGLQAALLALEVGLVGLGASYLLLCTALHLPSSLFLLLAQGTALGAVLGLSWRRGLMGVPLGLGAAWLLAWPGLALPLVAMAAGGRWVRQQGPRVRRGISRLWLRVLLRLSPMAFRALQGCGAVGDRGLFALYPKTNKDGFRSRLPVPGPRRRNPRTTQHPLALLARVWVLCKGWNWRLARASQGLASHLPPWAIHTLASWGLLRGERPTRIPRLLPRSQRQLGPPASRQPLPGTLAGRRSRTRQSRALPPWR

[5] = biological target: T2, Tyrosine-protein kinase Mer (Homo sapiens) (UniProt Q12866); conditions: Compound concentration 1000.0 nM
T2 sequence (whole entry): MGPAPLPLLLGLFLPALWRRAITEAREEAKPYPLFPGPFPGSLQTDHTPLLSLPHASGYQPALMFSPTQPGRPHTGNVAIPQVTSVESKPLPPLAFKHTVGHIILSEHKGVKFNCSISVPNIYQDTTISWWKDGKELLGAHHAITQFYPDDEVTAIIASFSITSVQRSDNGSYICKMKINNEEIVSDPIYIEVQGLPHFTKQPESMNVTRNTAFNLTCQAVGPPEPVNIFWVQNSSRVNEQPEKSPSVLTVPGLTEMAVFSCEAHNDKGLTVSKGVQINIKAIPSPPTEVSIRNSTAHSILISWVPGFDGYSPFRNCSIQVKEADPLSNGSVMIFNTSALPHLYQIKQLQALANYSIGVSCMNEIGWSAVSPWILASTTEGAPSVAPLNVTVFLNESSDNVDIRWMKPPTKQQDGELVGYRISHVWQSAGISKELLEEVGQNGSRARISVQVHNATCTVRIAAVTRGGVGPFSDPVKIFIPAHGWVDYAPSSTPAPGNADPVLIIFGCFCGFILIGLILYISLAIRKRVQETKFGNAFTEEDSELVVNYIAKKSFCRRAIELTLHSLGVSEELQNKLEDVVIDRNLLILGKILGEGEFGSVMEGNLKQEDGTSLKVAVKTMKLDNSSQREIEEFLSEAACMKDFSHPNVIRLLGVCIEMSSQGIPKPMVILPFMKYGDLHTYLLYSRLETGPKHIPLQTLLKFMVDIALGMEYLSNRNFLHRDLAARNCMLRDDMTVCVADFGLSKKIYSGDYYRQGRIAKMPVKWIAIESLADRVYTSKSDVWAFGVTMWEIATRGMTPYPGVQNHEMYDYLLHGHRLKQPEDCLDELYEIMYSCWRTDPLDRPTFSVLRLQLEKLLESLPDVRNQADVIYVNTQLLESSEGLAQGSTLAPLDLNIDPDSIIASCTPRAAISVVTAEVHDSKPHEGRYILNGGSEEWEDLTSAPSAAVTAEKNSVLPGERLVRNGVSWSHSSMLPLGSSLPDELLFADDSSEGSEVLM

[6] = biological target: 5-hydroxytryptamine receptor 1D (Homo sapiens) (UniProt P28221); conditions: Compound concentration 10.0 uM
[7] = biological target: Receptor-interacting serine/threonine-protein kinase 2 (Homo sapiens) (UniProt O43353); conditions: Compound concentration 1000.0 nM
[8] = biological target: MAP kinase-interacting serine/threonine-protein kinase 2 (Homo sapiens) (UniProt Q9HBH9); conditions: Compound concentration 1000.0 nM
[9] = biological target: Mitogen-activated protein kinase 6 (Homo sapiens) (UniProt Q16659); conditions: Compound concentration 1000.0 nM
[10] = biological target: Serine/threonine-protein kinase 32B (Homo sapiens) (UniProt Q9NY57); conditions: Compound concentration 1000.0 nM
[11] = biological target: Cyclin-dependent kinase 11A (Homo sapiens) (UniProt Q9UQ88); conditions: Compound concentration 1000.0 nM
[12] = biological target: Serine/threonine-protein kinase pim-3 (Homo sapiens) (UniProt Q86V86); conditions: Compound concentration 1000.0 nM

Sequence of Serine/threonine-protein kinase 32B (Homo sapiens) (Q9NY57 whole entry): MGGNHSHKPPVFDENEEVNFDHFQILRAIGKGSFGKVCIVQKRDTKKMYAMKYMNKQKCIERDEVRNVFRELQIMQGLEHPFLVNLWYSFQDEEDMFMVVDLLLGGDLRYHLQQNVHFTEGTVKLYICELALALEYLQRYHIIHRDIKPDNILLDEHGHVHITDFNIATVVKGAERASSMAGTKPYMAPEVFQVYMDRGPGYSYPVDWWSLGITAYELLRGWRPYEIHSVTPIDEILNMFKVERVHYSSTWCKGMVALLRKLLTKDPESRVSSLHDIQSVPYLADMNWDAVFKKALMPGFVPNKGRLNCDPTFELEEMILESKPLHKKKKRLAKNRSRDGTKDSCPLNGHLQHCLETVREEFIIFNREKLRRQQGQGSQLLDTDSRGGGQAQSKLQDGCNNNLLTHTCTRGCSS
Sequence of Cyclin-dependent kinase 11A (Homo sapiens) (Q9UQ88 whole entry): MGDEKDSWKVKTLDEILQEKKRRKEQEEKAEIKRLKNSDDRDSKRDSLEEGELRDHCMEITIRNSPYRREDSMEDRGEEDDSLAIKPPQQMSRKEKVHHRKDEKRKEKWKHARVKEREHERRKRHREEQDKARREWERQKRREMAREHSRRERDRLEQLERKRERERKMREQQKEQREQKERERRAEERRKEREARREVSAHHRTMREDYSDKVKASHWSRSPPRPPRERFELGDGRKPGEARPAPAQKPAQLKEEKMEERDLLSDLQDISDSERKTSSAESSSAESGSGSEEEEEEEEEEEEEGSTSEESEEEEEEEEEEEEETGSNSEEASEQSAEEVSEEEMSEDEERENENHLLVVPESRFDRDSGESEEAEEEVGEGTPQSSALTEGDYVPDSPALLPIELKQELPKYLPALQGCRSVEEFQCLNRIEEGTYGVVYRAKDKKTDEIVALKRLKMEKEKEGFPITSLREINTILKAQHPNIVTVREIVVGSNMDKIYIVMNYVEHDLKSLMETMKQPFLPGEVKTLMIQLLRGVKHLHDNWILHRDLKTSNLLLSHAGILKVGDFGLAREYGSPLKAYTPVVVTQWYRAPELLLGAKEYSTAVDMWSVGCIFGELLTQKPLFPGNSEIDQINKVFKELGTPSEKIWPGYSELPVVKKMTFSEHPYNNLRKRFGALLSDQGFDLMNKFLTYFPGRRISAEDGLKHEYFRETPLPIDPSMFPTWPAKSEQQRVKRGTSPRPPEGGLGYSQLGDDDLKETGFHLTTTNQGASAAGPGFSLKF
Sequence of MAP kinase-interacting serine/threonine-protein kinase 2 (Homo sapiens) (Q9HBH9 whole entry, looked up): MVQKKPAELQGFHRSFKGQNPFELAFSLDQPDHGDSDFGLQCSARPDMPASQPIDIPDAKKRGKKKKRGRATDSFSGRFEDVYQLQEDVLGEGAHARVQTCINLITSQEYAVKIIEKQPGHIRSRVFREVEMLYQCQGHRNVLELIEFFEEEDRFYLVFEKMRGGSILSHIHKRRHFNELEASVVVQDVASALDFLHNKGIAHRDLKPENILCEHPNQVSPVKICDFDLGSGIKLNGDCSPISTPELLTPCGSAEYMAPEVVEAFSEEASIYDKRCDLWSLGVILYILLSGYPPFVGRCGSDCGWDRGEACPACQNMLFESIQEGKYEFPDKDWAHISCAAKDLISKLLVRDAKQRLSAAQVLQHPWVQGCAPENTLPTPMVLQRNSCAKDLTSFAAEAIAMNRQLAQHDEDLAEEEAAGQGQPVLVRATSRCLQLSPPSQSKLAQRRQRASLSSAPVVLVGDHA
Sequence of 5'-AMP-activated protein kinase catalytic subunit alpha-1 (Q13131 whole entry): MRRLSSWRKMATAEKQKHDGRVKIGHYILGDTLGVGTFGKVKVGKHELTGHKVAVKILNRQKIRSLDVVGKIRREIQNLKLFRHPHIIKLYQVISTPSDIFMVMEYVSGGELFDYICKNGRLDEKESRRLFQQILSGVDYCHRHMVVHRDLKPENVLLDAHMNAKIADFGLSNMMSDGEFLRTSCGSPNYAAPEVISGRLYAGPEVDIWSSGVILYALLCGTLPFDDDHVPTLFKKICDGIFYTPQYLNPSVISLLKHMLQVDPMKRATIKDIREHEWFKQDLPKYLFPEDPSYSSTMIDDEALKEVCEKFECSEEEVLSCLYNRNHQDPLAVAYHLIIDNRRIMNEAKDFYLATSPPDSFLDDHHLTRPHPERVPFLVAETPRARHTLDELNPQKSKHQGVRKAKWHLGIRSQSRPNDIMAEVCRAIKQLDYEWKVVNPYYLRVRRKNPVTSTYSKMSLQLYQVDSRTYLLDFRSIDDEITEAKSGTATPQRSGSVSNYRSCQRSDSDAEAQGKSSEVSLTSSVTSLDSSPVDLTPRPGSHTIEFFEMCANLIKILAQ
Sequence of 5-hydroxytryptamine receptor 1D (Homo sapiens) (P28221 whole entry): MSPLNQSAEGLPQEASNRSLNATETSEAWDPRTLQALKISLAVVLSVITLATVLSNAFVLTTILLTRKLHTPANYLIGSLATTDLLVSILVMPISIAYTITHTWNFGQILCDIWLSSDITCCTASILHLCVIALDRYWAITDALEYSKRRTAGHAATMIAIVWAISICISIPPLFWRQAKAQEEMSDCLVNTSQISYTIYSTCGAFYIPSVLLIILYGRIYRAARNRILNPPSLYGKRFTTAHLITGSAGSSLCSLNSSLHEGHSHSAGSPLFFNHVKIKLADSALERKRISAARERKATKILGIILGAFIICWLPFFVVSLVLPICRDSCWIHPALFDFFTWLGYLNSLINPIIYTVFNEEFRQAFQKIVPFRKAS
Sequence of Mitogen-activated protein kinase 6 (Homo sapiens) (Q16659 whole entry): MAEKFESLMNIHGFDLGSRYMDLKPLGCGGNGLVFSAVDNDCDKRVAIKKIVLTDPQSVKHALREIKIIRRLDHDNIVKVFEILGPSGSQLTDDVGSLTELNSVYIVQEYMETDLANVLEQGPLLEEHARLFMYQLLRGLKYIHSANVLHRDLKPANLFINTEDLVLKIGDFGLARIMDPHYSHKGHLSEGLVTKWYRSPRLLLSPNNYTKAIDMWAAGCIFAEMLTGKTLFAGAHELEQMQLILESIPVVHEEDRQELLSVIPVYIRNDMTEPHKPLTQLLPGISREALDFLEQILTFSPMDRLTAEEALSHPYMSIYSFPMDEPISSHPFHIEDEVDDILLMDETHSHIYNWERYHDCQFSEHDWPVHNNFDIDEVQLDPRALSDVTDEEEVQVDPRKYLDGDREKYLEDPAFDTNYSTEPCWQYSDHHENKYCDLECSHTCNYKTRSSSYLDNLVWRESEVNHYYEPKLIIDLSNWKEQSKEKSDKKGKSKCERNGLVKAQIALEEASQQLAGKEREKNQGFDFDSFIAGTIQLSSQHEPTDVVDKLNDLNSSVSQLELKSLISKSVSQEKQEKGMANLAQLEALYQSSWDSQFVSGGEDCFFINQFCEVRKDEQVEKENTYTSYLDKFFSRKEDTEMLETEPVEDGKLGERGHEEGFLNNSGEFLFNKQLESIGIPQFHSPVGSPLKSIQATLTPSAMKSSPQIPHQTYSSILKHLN
Sequence of Receptor-interacting serine/threonine-protein kinase 2 (Homo sapiens) (O43353 whole entry): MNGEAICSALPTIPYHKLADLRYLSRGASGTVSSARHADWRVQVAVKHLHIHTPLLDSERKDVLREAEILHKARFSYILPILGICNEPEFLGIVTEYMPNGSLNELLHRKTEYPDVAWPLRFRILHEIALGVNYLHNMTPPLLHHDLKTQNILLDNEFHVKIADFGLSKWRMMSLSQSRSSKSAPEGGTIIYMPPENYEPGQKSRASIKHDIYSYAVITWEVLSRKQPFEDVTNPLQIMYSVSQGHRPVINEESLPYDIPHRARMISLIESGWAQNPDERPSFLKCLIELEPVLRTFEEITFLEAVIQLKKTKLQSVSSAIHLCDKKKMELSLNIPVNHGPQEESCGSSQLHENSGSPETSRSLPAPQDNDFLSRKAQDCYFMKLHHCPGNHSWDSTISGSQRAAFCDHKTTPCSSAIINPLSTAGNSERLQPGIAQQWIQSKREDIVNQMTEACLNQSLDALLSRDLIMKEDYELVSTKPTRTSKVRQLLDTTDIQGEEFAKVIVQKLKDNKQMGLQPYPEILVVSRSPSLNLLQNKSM
Sequence of Tyrosine-protein kinase Lyn (Homo sapiens) (P07948 2-512 limits assumed): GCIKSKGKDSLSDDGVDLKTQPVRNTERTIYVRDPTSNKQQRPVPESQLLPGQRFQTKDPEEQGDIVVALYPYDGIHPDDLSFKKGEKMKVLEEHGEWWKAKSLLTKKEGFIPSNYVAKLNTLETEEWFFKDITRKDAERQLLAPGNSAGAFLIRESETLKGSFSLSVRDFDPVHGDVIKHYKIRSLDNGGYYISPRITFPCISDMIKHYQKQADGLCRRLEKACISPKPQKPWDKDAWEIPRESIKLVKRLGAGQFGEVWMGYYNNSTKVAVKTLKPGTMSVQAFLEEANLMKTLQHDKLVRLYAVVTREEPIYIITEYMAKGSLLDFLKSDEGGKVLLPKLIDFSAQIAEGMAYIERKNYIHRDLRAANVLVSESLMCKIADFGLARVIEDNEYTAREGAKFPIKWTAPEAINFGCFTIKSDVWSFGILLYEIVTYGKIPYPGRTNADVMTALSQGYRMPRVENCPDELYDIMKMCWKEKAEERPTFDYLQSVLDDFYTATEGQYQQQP

Structure (SMILES) | residual activity [1] [%] | residual activity [2] [%] | IC50 [3] | residual activity [4] [%] | residual activity [5] [%] | inhibition [6] [%] | residual activity [7] [%] | residual activity [8] [%] | residual activity [9] [%] | residual activity [10] [%] | residual activity [11] [%] | residual activity [12] [%]
CC1=C(C#N)C(c2ccc3c(c2)c(NC(=O)c2ccccc2C)nn3C)C(C#N)=C(C)N1 [BAY-974] | 89 | 80 | > 20 µM (not active) | 70 | 100 | 2.45 | 100 | 100 | 97 | 100 | 100 | 100
CCc1ccccc1C(=O)Nc1n[nH]c2c(C)c(F)c(C3C(C#N)=C(C)N(C)C(C)=C3C#N)cc12 [BAY-3827] | 86 | 93 | 0.0014 µM (active) | 96 | 80 | 4.65 | 100 | 98 | 100 | 98 | 86 | 100
